Data from patent US9133437B2, “Cell proliferation-promoting peptide and use thereof” (TOAGOSEI CO. LTD., priority 2009, dated 2015).
Where no end group is shown, it is not given here.

Tested on: Rat bone marrow stem cells (mesenchymal stem cells)
Experiment: Cell proliferation-promoting activity, WST-8 colorimetry (OD450)
Format: cell-based
Details: four days from start of incubation; WST-8, 2 hours; bFGF at 10 ng/mL
Experimental: The cell proliferation-promoting peptides (Samples 1 to 8) obtained in Example 1 and the peptides composed of only a (A) part sequence (Samples 9 to 11) which had been prepared for comparison were evaluated, respectively, on the cell proliferation-promoting activity. Sample 12 was an experimental control where a commercial bFGF was used as the cell proliferation promoter. Sample 13 was an experimental control where no peptide was added (bFGF was not added, either). The evaluation assay is described in detail below. Each synthesized peptide sample was dissolved in PBS (phosphate buffered saline) to prepare a stock solution having a peptide concentration of 1 mM.
Rat bone marrow stem cells (mesenchymal stem cells) were used as the test cells. In particular, the test stem cells were subcultured in Dulbecco MEM (DMEM: a Gibco product) containing 10% fetal bovine serum (FBS: a Gibco product), 2 mM of L-glutamine, 50 unit/mL of penicillin, and 50 μg/mL of streptomycin. Passage 2 cells were used for the evaluation.
The test stem cells that had been pre-incubated overnight in the DMEM containing 10 ng/mL of bFGF were collected and seeded at 1×10^3 cells per well in a 96-well plate. The amount of the culture medium was […] per well.
Then, the stock solutions containing respective peptides of Samples 1 to 11 were added to some wells, one for each well. For comparison, a commercial bFGF (a PeproTech product) was added at a concentration of 10 ng/mL to some other wells (Sample 12). Similarly, yet some other wells were set up to not to contain any of the sample peptides or bFGF (Sample 13).
After a sample peptide or bFGF was added as described above, the 96-well plate was placed in a CO2 incubator and incubated standing at 37° C. and 5% CO2. Exchange of the culture medium was carried out every other day. The culture medium used for an exchange was the same as the culture medium used initially for the incubation (i.e., for the group containing a sample peptide or bFGF, the same sample peptide or bFGF was added to the exchanged culture medium).
During the course of this incubation assay, water-soluble tetrazolium salt (WST-8) was added to some wells as a staining reagent at the start of the incubation (day 0), when two days had passed from the start (day 2) and when four days had passed from the start (day 4). Incubated for 2 hours after the addition, the cell culture medium with the added staining reagent was collected. The level of cell proliferation was evaluated by colorimetry as optical density measured at 450 nm (OD450) based on reduction of the tetrazolium salt.

Row | Substance | OD450 day 4
1 | KKRTLRKNDRKKR (KKRTLRKNDRKKR-NH2) [Sample 9, reference compound] | 1.260
2 | KKRTLRKNDRKKR LLGNSSPRTQSPQNC (KKRTLRKNDRKKRLLGNSSPRTQSPQNC-NH2) [Sample 3] | 2.289
3 | KKRTLRKNDRKKR TLKERCLQVVRSLVK (KKRTLRKNDRKKRTLKERCLQVVRSLVK) [Sample 4] | 2.410
4 | Sample 12: experimental control: commercial bFGF (basic fibroblast growth factor, a PeproTech product) at 10 ng/mL | 1.977
5 | TLDGGDIINALCFS KKRTLRKNDRKKR (TLDGGDIINALCFSKKRTLRKNDRKKR-NH2) [Sample 2] | 2.259
6 | TLKERCLQVVRSLVK KKRTLRKNDRKKR (TLKERCLQVVRSLVKKKRTLRKNDRKKR) [Sample 1] | 2.369
7 | WRRQARFK TLKERCLQVVRSLVK (WRRQARFKTLKERCLQVVRSLVK) [Sample 6] | 2.365
8 | WRRQARFK [Sample 11, reference compound] | 1.744
9 | YARAAARQARA (YARAAARQARA-NH2) [Sample 10, reference compound] | 1.737
10 | YARAAARQARA SLQYLCRFVIRQYTR (YARAAARQARASLQYLCRFVIRQYTR-NH2) [Sample 8] | 1.828
11 | YARAAARQARA TLKERCLQVVRSLVK (YARAAARQARATLKERCLQVVRSLVK) [Sample 5] | 1.971
12 | YGRKKRRQRRRTLKERCLQVVRSLVK (YGRKKRRQRRRTLKERCLQVVRSLVK-NH2) [Sample 7] | 2.279

Same assay, conditions: start of the incubation (day 0); WST-8, 2 hours; 1×10^3 cells per well

Row | Substance | OD450 Start
13 | KKRTLRKNDRKKR (KKRTLRKNDRKKR-NH2) [Sample 9, reference compound] | 0.124
14 | KKRTLRKNDRKKR LLGNSSPRTQSPQNC (KKRTLRKNDRKKRLLGNSSPRTQSPQNC-NH2) [Sample 3] | 0.124
15 | KKRTLRKNDRKKR TLKERCLQVVRSLVK (KKRTLRKNDRKKRTLKERCLQVVRSLVK) [Sample 4] | 0.124
16 | Sample 12: experimental control: commercial bFGF (basic fibroblast growth factor, a PeproTech product) at 10 ng/mL | 0.124
17 | TLDGGDIINALCFS KKRTLRKNDRKKR (TLDGGDIINALCFSKKRTLRKNDRKKR-NH2) [Sample 2] | 0.124
18 | TLKERCLQVVRSLVK KKRTLRKNDRKKR (TLKERCLQVVRSLVKKKRTLRKNDRKKR) [Sample 1] | 0.124
19 | WRRQARFK TLKERCLQVVRSLVK (WRRQARFKTLKERCLQVVRSLVK) [Sample 6] | 0.124
20 | WRRQARFK [Sample 11, reference compound] | 0.124
21 | YARAAARQARA (YARAAARQARA-NH2) [Sample 10, reference compound] | 0.124
22 | YARAAARQARA SLQYLCRFVIRQYTR (YARAAARQARASLQYLCRFVIRQYTR-NH2) [Sample 8] | 0.124
23 | YARAAARQARA TLKERCLQVVRSLVK (YARAAARQARATLKERCLQVVRSLVK) [Sample 5] | 0.124
24 | YGRKKRRQRRRTLKERCLQVVRSLVK (YGRKKRRQRRRTLKERCLQVVRSLVK-NH2) [Sample 7] | 0.124

Same assay, conditions: two days from start of incubation; WST-8, 2 hours; bFGF at 10 ng/mL

Row | Substance | OD450 day 2
25 | KKRTLRKNDRKKR (KKRTLRKNDRKKR-NH2) [Sample 9, reference compound] | 0.648
26 | KKRTLRKNDRKKR LLGNSSPRTQSPQNC (KKRTLRKNDRKKRLLGNSSPRTQSPQNC-NH2) [Sample 3] | 1.177
27 | KKRTLRKNDRKKR TLKERCLQVVRSLVK (KKRTLRKNDRKKRTLKERCLQVVRSLVK) [Sample 4] | 1.357
28 | Sample 12: experimental control: commercial bFGF (basic fibroblast growth factor, a PeproTech product) at 10 ng/mL | 1.022
29 | TLDGGDIINALCFS KKRTLRKNDRKKR (TLDGGDIINALCFSKKRTLRKNDRKKR-NH2) [Sample 2] | 1.133
30 | TLKERCLQVVRSLVK KKRTLRKNDRKKR (TLKERCLQVVRSLVKKKRTLRKNDRKKR) [Sample 1] | 1.264
31 | WRRQARFK TLKERCLQVVRSLVK (WRRQARFKTLKERCLQVVRSLVK) [Sample 6] | 1.181
32 | WRRQARFK [Sample 11, reference compound] | 0.799
33 | YARAAARQARA (YARAAARQARA-NH2) [Sample 10, reference compound] | 0.770
34 | YARAAARQARA SLQYLCRFVIRQYTR (YARAAARQARASLQYLCRFVIRQYTR-NH2) [Sample 8] | 0.856
35 | YARAAARQARA TLKERCLQVVRSLVK (YARAAARQARATLKERCLQVVRSLVK) [Sample 5] | 0.926
36 | YGRKKRRQRRRTLKERCLQVVRSLVK (YGRKKRRQRRRTLKERCLQVVRSLVK-NH2) [Sample 7] | 1.340
